Results on one compound are retold here after paper PMC8453848, “Effect of GLPG1205, a GPR84 Modulator, on CYP2C9, CYP2C19, and CYP1A2 Enzymes: In Vitro and Phase 1 Studies” (Clinical Pharmacology in Drug Development, 2021).

Molecules are shown by their SMILES. Like-named read-outs stand apart in the source and are kept apart here.

The nature of data set [1]: Phase 1 drug-drug interaction study: plasma PK of GLPG1205. The class given is in vivo, human. As to conditions: for AUC: 100 mg. On the procedure:
The protein precipitated mixture was centrifuged at approximately 14 000 g for 15 minutes at room temperature. The clear supernatant was diluted with dilution solvent (water with 0.05% of trifluoroacetic acid) and then transferred into LC-MS plates. […] Chromatographic separation was performed on a Kinetex C18 column (50 x 3.0 mm, 2.6 µm from Phenomenex, Torrance, CA, USA) set at 40°C by using a Nexera high performance liquid chromatography (HPLC) system (Shimadzu, Kyoto, Japan) in isocratic elution mode.

The conditions of data set [2]: cited from earlier work.
A further data set has as its target CYP2C19 (Homo sapiens, UniProt P33261). Kind of data set: CYP2C19 inhibition, S-mephenytoin 4'-hydroxylase assay in human liver microsomes. Type of data set: in vitro ADME. Further details: from tissue; host or cells: in vivo, 14 healthy male subjects. The note with it: for IC50: estimated. On the procedure:
Inhibition of the biotransformation of CYP‐specific substrates by GLPG1205 was studied using human liver microsomes. Incubation was performed at 37°C with the following conditions: n = 3 for all assays; 0.1 M phosphate buffer (pH 7.4), the cofactor nicotinamide adenine dinucleotide phosphate (NADPH) incubated at 2 mM, the CYP‐specific substrate incubated at 1 nonsaturating concentration, and GLPG1205. Additional incubation was performed with (1) a 30‐minute preincubation step of GLPG1205 with microsomes before the addition of the cofactor NADPH and CYP substrate; and (2) a 30‐minute preincubation step of GLPG1205 with microsomes and the cofactor NADPH, before the addition of the CYP substrate. […] The CYP‐specific substrates were incubated per the above conditions at the following concentrations: tolbutamide, 200 μM, CYP2C9 substrate; S‐mephenytoin, 60 μM, CYP2C19 substrate; phenacetin, 40 μM, CYP1A2 substrate.
Further details of the assays used for each CYP substrate are reported in the Supplemental Methods. Metabolites of the CYP‐specific substrates (acetaminophen for CYP1A2, hydroxytolbutamide for CYP2C9, hydroxymephenytoin for CYP2C19) were quantified using LC‐MS/MS.
Enzymatic activity in the presence of GLPG1205 was expressed as a percentage of the control activity obtained with the vehicle only (ie, without GLPG1205 or reference inhibitor). Decreases in activity of less than 20% were not considered clinically relevant.
Protocol for CYP Inhibition of the biotransformation of CYP-specific substrates by GLPG1205 was studied using human liver microsomes.^7 Incubations were performed at 37°C with the following conditions: n = 3 for all assays; 0.1 M phosphate buffer pH 7.4; the cofactor β-nicotinamide adenine dinucleotide phosphate (NADPH) incubated at 2 mM; the CYP-specific substrate incubated at one non-saturating concentration; and GLPG1205. Additional incubations were performed with: 1) a 30-minute preincubation step of GLPG1205 with microsomes before addition of the cofactor NADPH and CYP substrate; and 2) a 30-minute preincubation step of GLPG1205 with microsomes and the cofactor NADPH, before addition of the CYP substrate.
The CYP-specific substrates were incubated at the following conditions: tolbutamide (200 µM; CYP2C9); S-mephenytoin (60 µM; CYP2C19); phenacetin (40 µM; CYP1A2).^8-10 Reference inhibitors (as detailed in the previous section) were incubated in parallel. […]
A two-fold dilution in D3-OH-mephenytoine at 1 µM in water with 0.1% formic acid was applied to the supernatants and then analysis was performed by LC-MS/MS with chromatographic separation. […] The quantification of the metabolite, hydroxymephenytoin, was performed in MRM mode using the 235.1 to 150.2 transition. […]

For the next data set, the target named is T1, CYP1A2 (Homo sapiens, UniProt P05177).
T1 sequence (P05177 1-516): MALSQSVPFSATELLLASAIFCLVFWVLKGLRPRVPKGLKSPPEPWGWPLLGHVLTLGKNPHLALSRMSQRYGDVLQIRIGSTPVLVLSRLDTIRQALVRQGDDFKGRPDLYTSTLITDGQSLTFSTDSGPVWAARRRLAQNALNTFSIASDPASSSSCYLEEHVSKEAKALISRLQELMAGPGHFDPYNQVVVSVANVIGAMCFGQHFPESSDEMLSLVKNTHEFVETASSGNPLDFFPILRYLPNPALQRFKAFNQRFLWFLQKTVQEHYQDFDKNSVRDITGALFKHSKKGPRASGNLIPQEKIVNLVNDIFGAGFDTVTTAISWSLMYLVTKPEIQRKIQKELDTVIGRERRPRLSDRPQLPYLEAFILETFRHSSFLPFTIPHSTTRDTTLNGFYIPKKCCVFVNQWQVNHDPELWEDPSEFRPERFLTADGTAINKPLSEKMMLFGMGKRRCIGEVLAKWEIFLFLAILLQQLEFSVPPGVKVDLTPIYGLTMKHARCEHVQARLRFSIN
The experiment in a line: CYP1A2 inhibition, phenacetin O-deethylase assay in human liver microsomes. Type of data set: in vitro ADME. Further details: from tissue; host or cells: in vivo, 14 healthy male subjects. As to conditions: for IC50: estimated.

[3] abbreviates: once‐daily oral dosing for 14 days.

CYP2C19, sequence (P33261 whole entry): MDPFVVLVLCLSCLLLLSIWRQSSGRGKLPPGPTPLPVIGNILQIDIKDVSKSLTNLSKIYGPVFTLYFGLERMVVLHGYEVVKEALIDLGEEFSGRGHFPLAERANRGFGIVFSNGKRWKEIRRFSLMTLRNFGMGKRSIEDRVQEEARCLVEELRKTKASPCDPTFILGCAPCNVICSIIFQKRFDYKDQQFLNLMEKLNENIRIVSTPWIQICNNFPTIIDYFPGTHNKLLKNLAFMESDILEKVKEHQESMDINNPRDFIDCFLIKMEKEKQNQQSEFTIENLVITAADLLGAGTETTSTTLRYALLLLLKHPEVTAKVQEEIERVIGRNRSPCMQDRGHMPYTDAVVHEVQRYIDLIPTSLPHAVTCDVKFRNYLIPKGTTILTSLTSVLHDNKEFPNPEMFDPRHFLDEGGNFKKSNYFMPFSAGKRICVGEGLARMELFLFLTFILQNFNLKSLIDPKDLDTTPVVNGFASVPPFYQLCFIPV
Procedure for CYP1A2: Inhibition of the biotransformation of CYP‐specific substrates by GLPG1205 was studied using human liver microsomes. Incubation was performed at 37°C with the following conditions: n = 3 for all assays; 0.1 M phosphate buffer (pH 7.4), the cofactor nicotinamide adenine dinucleotide phosphate (NADPH) incubated at 2 mM, the CYP‐specific substrate incubated at 1 nonsaturating concentration, and GLPG1205. Additional incubation was performed with (1) a 30‐minute preincubation step of GLPG1205 with microsomes before the addition of the cofactor NADPH and CYP substrate; and (2) a 30‐minute preincubation step of GLPG1205 with microsomes and the cofactor NADPH, before the addition of the CYP substrate. GLPG1205 was tested at 6 concentrations: 0.5, 1, 5, 10, 50, and 100 μM (0.19, 0.38, 1.89, 3.78, 18.9, and 37.8 μg/mL, respectively), for each condition. The CYP‐specific substrates were incubated per the above conditions at the following concentrations: tolbutamide, 200 μM, CYP2C9 substrate; S‐mephenytoin, 60 μM, CYP2C19 substrate; phenacetin, 40 μM, CYP1A2 substrate.
GLPG1205 was tested at 6 concentrations: 0.5, 1, 5, 10, 50 and 100 µM (0.19, 0.38, 1.89, 3.78, 18.9, 37.8 µg/mL, respectively).
The CYP-specific substrates were incubated at the following conditions: tolbutamide (200 µM; CYP2C9); S-mephenytoin (60 µM; CYP2C19); phenacetin (40 µM; CYP1A2).^8-10 Reference inhibitors (as detailed in the previous section) were incubated in parallel. For all assays, the following controls were incubated in parallel: 1) with CYP substrate, without microsomes, with NADPH, without inhibitor (to check for substrate stability); 2) with CYP substrate, with microsomes, without NADPH, without inhibitor (to check for non-NADPH-dependent metabolism of substrate); and 3) without substrate, with microsomes, with NADPH, with test compound or reference inhibitor (to check for potential analytical interference).
At the end of the incubation period, the reaction was stopped with the addition of 0.15 M phosphoric acid (300 µL); proteins were allowed to precipitate for a minimum of 1 hour at approximately 4°C. After centrifugation at 3200 g for 20 minutes at approximately + 4°C, supernatants were collected.

As to `O=c1nc(OC[C@@H]2COCCO2)cc2n1CCc1cc(C#CC3CC3)ccc1-2` [GLPG1205, 9‐cyclopropylethynyl‐2‐[(S)‐1‐(1,4)dioxan‐2‐ylmethoxy]‐6,7‐dihydropyrimido[6,1‐a]isoquinolin‐4‐one], the “day by which steady state was reached” value in data set [1] (GLPG1205 100 mg once a day, trough plasma concentrations) is at most 9 days. For the same compound, the AUC in data set [1] (male, human, plasma, oral, day 13, GLPG1205 100 mg once a day, n = 5, arithmetic mean (CV%), read-out: AUC0‐inf) was 373 µg·h/mL; in data set [1] (male, human, plasma, oral, day 13, GLPG1205 100 mg once a day, n = 14, arithmetic mean (CV%), read-out: AUC0‐t) it was 395 µg·h/mL. Further, the peak concentration (Cmax) in data set [1] (male, human, plasma, oral, day 13, GLPG1205 100 mg once a day, n = 14, arithmetic mean (CV%)) was 5010 ng/mL; in data set [2] (multiple doses of GLPG1205 100 mg once a day, steady state) it was 3910 ng/mL. For the same compound, the half-life in data set [1] (male, human, plasma, oral, day 13, GLPG1205 100 mg once a day, n = 14, arithmetic mean (CV%), read-out: t1/2, λz (converted)) was 74.1 h. Besides, the tmax in data set [1] (male, human, plasma, oral, day 13, GLPG1205 100 mg once a day, n = 14, median (min‐max)) was found to be 2 h. For the same compound, the “median time to maximum plasma concentration (tmax)” value in data set [2] (healthy male subjects) is 4 h. Moreover, in data set [2] (healthy subjects), the maximum tolerated dose is given as 100 mg once a day. Also, the “day by which steady‐state plasma concentration was reached” value in data set [2] (setting [3]) is at most 10 days. Moreover, the “elimination half‐life, average” value in data set [2] (setting [3]) was 88.6 h. Also, the “inhibition of CYP2C19 in words” value against CYP2C19 (GLPG1205 50‐100 μM) is “moderate and reversible”. Moreover, the IC50 was at least 50 µM at CYP2C19 (human liver microsomes, read-out: IC50 for inhibition of CYP2C19); at least 49.9 µM at CYP2C19 (equivalent of ≥50 μM, read-out: IC50 for inhibition of CYP2C19, equivalent); at least 100 µM on CYP1A2 (human liver microsomes, read-out: IC50 for inhibition of CYP1A2); at least 99.9 µM at CYP1A2 (equivalent of ≥100 μM, read-out: IC50 for inhibition of CYP1A2, equivalent). The inhibition at 20 min at CYP2C19 (human, liver microsomes, pH 7.4, probe S-mephenytoin 60 µM, GLPG1205 50‐100 μM without preincubation, S‐mephenytoin 60 μM) was 44.2 to 49.3%. Besides, the “inhibition of CYP1A2 in words” value against CYP1A2 (GLPG1205 50‐100 μM) was “Weak”. The compound further had an inhibition at 7 min, 100 µM on CYP1A2 (human, liver microsomes, pH 7.4, probe phenacetin 40 µM, GLPG1205 100 μM following a 30‐minute preincubation with NADPH) of 52.9%. For the same compound, at CYP1A2 (human, liver microsomes, pH 7.4, probe phenacetin 40 µM, GLPG1205 50‐100 μM, phenacetin 40 μM), the inhibition at 7 min was in the range of 20.4 to 38%.
